Assay results from paper PMC12592502, “Unraveling the mechanisms behind the enhanced efficacy of β-lactam-based sideromycins” (Communications Biology, 2025).
In brackets after ≈: the same amount, converted by molar mass. Where two headings read alike, the source gives them in different places. Marks after values point to notes of the source that are not given here.

Columns and labels:
E. coli lptD4213 = assay: MIC, hyperpermeable mutant; assay type: cell-based, Escherichia coli
Description: (§1) All bacterial strains (see description and sources Table S1) were stored at −80 °C, and grown on tryptone soya agar (TSA) at 35 °C. The iron-deprived (ID)-MHBCA (cation-adjusted Muller-Hinton Broth, Becton Dickinson, Mississauga, ON, Canada) medium was prepared as reported by refs. [21],[50]. Briefly, MHBCA was treated with 10% Chelex® 50-100 mesh (Sigma) and stirred for 6 h at room temperature. The resin was removed by filtration. Divalent Ca^2+ (CaCl2), Mg^2+ (MgCl2), and Zn^2+(ZnSO4), were then added in the iron-depleted medium at 22, 12, and 1 μg/ml respectively. Finally, the pH was adjusted to 7.3, and the medium was sterilized with a 0.2-μm filter. Regular MHBCA (i.e., not treated with Chelex®) was used to compare the inhibitory activity of conjugates in iron-sufficient conditions. The resin used for Chelex treatment was always fresh and had never been regenerated, ensuring consistent iron removal.
(§2) Minimal inhibitory concentrations (MICs) were performed using a broth microdilution technique according to the Clinical and Laboratory Standards Institute (CLSI) guidelines. MICs were determined in MHBCA and in ID-MHBCA. To check the impact of β-lactamases, MICs in the presence of a β-lactamase inhibitor were also determined. The inhibitor was homogenized at 2X the final concentration and added to the bacterial inoculum just before distributing cells into the wells containing the drug dilutions. The final concentration of each inhibitor was 4 μg/mL for clavulanic acid (tested against K. pneumoniae) and 200 μg/mL for 3-aminophenylboronic acid (tested against P. aeruginosa and A. baumannii).

E. coli ΔampC = assay: MIC, Keio mutant; assay type: cell-based, Escherichia coli
Description: as §1, §2

OXA-98 = OXA-98 (Acinetobacter baumannii, UniProt D0C7W4); assay: biochemical; design: species or system A. baumannii ATCC 19606
Chain of OXA-98 (D0C7W4 entry or part of it): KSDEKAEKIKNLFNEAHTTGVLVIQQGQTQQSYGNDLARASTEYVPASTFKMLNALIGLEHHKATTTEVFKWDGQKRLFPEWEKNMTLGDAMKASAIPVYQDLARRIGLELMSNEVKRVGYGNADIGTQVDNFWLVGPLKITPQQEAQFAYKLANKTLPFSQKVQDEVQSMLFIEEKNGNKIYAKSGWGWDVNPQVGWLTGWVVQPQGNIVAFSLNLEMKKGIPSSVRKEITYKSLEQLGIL
Description: Enzyme concentrations were 20 nM for AmpC and SHV-1, and 50 nM for OXA-98. Quartz cuvette (FireflySci Inc., Northport, NY) with 1 cm length path and 2 mm inside width was used with an Ultrospec 2100 Pro (Biochrom, Harvard Bioscience Inc., USA) to acquire the kinetic measures. […] The following extinction coefficients (Δε) and wavelengths (λ) were used:
The steady-state parameters (Km and Kcat) were determined by plotting the initial velocity against substrate concentrations (Michaelis–Menten curve). The Kcat was measured using the Vmax (μM/sec) divided by the total enzyme concentration and the catalytic efficiency was further calculated (Kcat/Km). SHV-1 parameters were determined with three Michaelis–Menten curves of at least seven substrate concentrations, while OXA-98 and AmpC were duplicates of curves of at least seven substrate concentrations. […] Initial velocities were measured at room temperature (25 °C). The Vmax and Km were calculated using least squares fit regression in GraphPad version 10.2.2. Ki was measured using a derivative of IC50 with an adaptation of the Cheng–Prusoff equation[55]. […] The corrected Ki was calculated using this formula: Kicorrected=Ki(observed)/1+S/KmNCF

E. coli MC4100 = assay: MIC; assay type: cell-based, Escherichia coli; conditions: for MIC in combination with PAβN: + 25 µg/mL PAβN
Description: as §1, with “conditions.” for “conditions. The resin used for Chelex treatment was always fresh and had never been regenerated, ensuring consistent iron removal.”
as §2

E. coli BW25113 = assay: MIC, parental strain of Keio mutants; assay type: cell-based, Escherichia coli
Description: as §1, with “conditions.” for “conditions. The resin used for Chelex treatment was always fresh and had never been regenerated, ensuring consistent iron removal.”
as §2

E. coli ΔfepA = assay: MIC, Keio mutant; assay type: cell-based, Escherichia coli
Description: as §1, with “conditions.” for “conditions. The resin used for Chelex treatment was always fresh and had never been regenerated, ensuring consistent iron removal.”
as §2

E. coli ΔfecA = assay: MIC, Keio mutant; assay type: cell-based, Escherichia coli
Description: as §1, with “conditions.” for “conditions. The resin used for Chelex treatment was always fresh and had never been regenerated, ensuring consistent iron removal.”
as §2

E. coli ΔentE = assay: MIC, Keio mutant; assay type: cell-based, Escherichia coli
Description: as §1, with “conditions.” for “conditions. The resin used for Chelex treatment was always fresh and had never been regenerated, ensuring consistent iron removal.”
as §2

E. coli ΔtonB = assay: MIC, Keio mutant; assay type: cell-based, Escherichia coli
Description: as §1, with “conditions.” for “conditions. The resin used for Chelex treatment was always fresh and had never been regenerated, ensuring consistent iron removal.”
as §2

[1] = Escherichia coli, LPTD4213, lptD4213, ID-MHBCA (−)
[2] = Escherichia coli, LPTD4213, lptD4213, MHBCA (+)
[3] = Escherichia coli, MC4100, MC4100, ID-MHBCA (−), read-out: MIC
[4] = Escherichia coli, BW25113, BW25113, ID-MHBCA
[5] = Escherichia coli, BW25113, BW25113, MHBCA
[6] = Escherichia coli, MC4100, MC4100, MHBCA (+), without PAβN, read-out: MIC
[7] = Escherichia coli, MC4100, MHBCA (+), without PAβN, read-out: MIC
[8] = MC4100, efflux pump mutant table S5, read-out: MIC

SMILES | MIC (E. coli lptD4213; [1]) | MIC (E. coli lptD4213; [2]) | MIC (E. coli ΔampC; Escherichia coli, ID-MHBCA) | MIC (E. coli ΔampC; Escherichia coli, MHBCA) | MIC (E. coli MC4100; [3]) | MIC ratio unconjugated β-lactam/conjugate (E. coli MC4100; MC4100, ID-MHBCA) | MIC in combination with PAβN (E. coli MC4100; MC4100, MHBCA) | MIC (E. coli BW25113; [4]) | MIC (E. coli BW25113; [5]) | MIC (E. coli ΔfepA; Escherichia coli, ID-MHBCA) | MIC (E. coli ΔfepA; Escherichia coli, MHBCA) | MIC (E. coli ΔfepA; MHBCA) | MIC (E. coli ΔfecA; Escherichia coli, ID-MHBCA) | MIC (E. coli ΔfecA; Escherichia coli, MHBCA) | MIC (E. coli ΔentE; Escherichia coli, ID-MHBCA) | MIC (E. coli ΔentE; Escherichia coli, MHBCA) | MIC (E. coli ΔtonB; Escherichia coli) | hydrolysis by OXA-98 (OXA-98) | MIC (E. coli MC4100; [6]) | MIC (E. coli MC4100; [8]) | also measured
CC1(C)S[C@@H]2[C@H](NC(=O)[C@H](N)c3ccccc3)C(=O)N2[C@H]1C(=O)O [AMP, ampicillin, reference compound] | 0.4 µM (≈ 0.14 µg/mL) | 0.4 µM (≈ 0.14 µg/mL) | 6.3 µM (≈ 2.2 µg/mL) | 6.3 µM (≈ 2.2 µg/mL) |  |  |  |  |  |  |  |  |  |  |  |  |  |  |  |  | MIC (E. coli lptD4213; lptD4213, MHBCA (+)): 0.4 µM (≈ 0.14 µg/mL)
CC1(C)SC2C(NC(=O)C(NC(=O)CN(CCCCNC(=O)c3cccc(O)c3O)C(=O)c3cccc(O)c3O)c3ccccc3)C(=O)N2C1C(=O)O (centres unmarked) [BAMP, bis-catechol (azotochelin)-ampicillin] | 0.024 µM (≈ 0.018 µg/mL) | 0.05 µM (≈ 0.0375 µg/mL) | 0.012 µM (≈ 0.009 µg/mL) | 0.024 µM (≈ 0.018 µg/mL) | 0.024 µM (≈ 0.018 µg/mL) | 512 | 0.2 µM | 0.024 µM (≈ 0.018 µg/mL) | 0.05 µM (≈ 0.0375 µg/mL) | 0.024 µM (≈ 0.018 µg/mL) | 0.1 to 0.4 µM (≈ 0.075 to 0.3 µg/mL) | 0.2 µM (≈ 0.15 µg/mL) | 0.006 µM (≈ 0.0045 µg/mL) | ≤ 0.003 µM | 0.05 µM (≈ 0.0375 µg/mL) | 0.2 µM (≈ 0.15 µg/mL) | 50 µM (≈ 37.5 µg/mL) |  |  |  | Ki (OXA-98): 499 ± 4 µM; MIC (E. coli MC4100; Escherichia coli, MC4100): 0.05 µM (≈ 0.0375 µg/mL); MIC ratio unconjugated β-lactam/conjugate (E. coli MC4100; MC4100, MHBCA): 256; MIC (E. coli ΔtonB; ΔtonB, MHBCA): 50^c μM
O=C(CN(CCCCNC(=O)c1cccc(O)c1O)C(=O)c1cccc(O)c1O)NC(C(=O)NC1C(=O)N2C(C(=O)O)=C(Cl)CCC12)c1ccccc1 (centres unmarked) [BLOR, bis-catechol (azotochelin)-loracarbef] | 0.006 µM (≈ 0.0045 µg/mL) | 0.006 µM (≈ 0.0045 µg/mL) | 0.006 µM (≈ 0.0045 µg/mL) | 0.006 µM (≈ 0.0045 µg/mL) | 0.006 µM (≈ 0.0045 µg/mL) | 512 | 0.2 µM | 0.006 µM (≈ 0.0045 µg/mL) | 0.012 µM (≈ 0.009 µg/mL) | 0.012 µM (≈ 0.009 µg/mL) | 0.1 to 0.4 µM (≈ 0.075 to 0.3 µg/mL) | 0.1 µM (≈ 0.075 µg/mL) | ≤ 0.003 µM | ≤ 0.003 µM | 0.012 µM (≈ 0.009 µg/mL) | 0.05 µM (≈ 0.0375 µg/mL) | 50 µM (≈ 37.5 µg/mL) | No hydrolysis | 0.012 µM (≈ 0.009 µg/mL) | 0.024 µM (≈ 0.018 µg/mL) | MIC (E. coli MC4100; [7]): 0.024 µM (≈ 0.018 µg/mL); MIC ratio unconjugated β-lactam/conjugate (E. coli MC4100; MC4100, MHBCA): 256
N[C@@H](C(=O)N[C@@H]1C(=O)N2C(C(=O)O)=C(Cl)CS[C@H]12)c1ccccc1 [CEF, cefaclor, reference compound] | 3.1 µM (≈ 1.14 µg/mL) | 3.1 µM (≈ 1.14 µg/mL) | 3.1 µM (≈ 1.14 µg/mL) | 3.1 µM (≈ 1.14 µg/mL) | 3.1 µM (≈ 1.14 µg/mL) |  | 13 µM | 6.3 µM (≈ 2.32 µg/mL) | 6.3 µM (≈ 2.32 µg/mL) | 25 µM (≈ 9.2 µg/mL) | 13 µM (≈ 4.78 µg/mL) |  | 6.3 µM (≈ 2.32 µg/mL) | 6.3 µM (≈ 2.32 µg/mL) | 6.3 µM (≈ 2.32 µg/mL) | 6.3 µM (≈ 2.32 µg/mL) | 13 µM (≈ 4.78 µg/mL) | No hydrolysis | 6.3 µM (≈ 2.32 µg/mL) |  | 
N[C@@H](C(=O)N[C@@H]1C(=O)N2C(C(=O)O)=C(Cl)CC[C@H]12)c1ccccc1 [LOR, loracarbef, reference compound] |  |  |  |  |  |  | 6.3 µM |  |  |  |  | 6.3 µM (≈ 2.2 µg/mL) |  |  |  |  |  | No hydrolysis |  | 3.1 µM (≈ 1.08 µg/mL) | MIC (E. coli lptD4213; lptD4213, ID-MHBCA (−)): 1.6 µM (≈ 0.56 µg/mL); MIC (E. coli lptD4213; lptD4213, MHBCA (+)): 1.6 µM (≈ 0.56 µg/mL); MIC (E. coli MC4100; MC4100, ID-MHBCA (−), read-out: MIC): 3.1 µM (≈ 1.08 µg/mL); MIC (E. coli MC4100; MC4100, MHBCA (+), without PAβN, read-out: MIC): 3.1 µM (≈ 1.08 µg/mL); MIC (E. coli ΔampC; ID-MHBCA): 3.1 µM (≈ 1.08 µg/mL); MIC (E. coli ΔampC; MHBCA): 3.1 µM (≈ 1.08 µg/mL); MIC (E. coli BW25113; BW25113, ID-MHBCA): 6.3 µM (≈ 2.2 µg/mL); MIC (E. coli BW25113; BW25113, MHBCA): 6.3 µM (≈ 2.2 µg/mL); MIC (E. coli ΔfepA; ID-MHBCA): 13 µM (≈ 4.55 µg/mL); MIC (E. coli ΔfecA; ID-MHBCA): 6.3 µM (≈ 2.2 µg/mL); MIC (E. coli ΔfecA; MHBCA): 3.1 µM (≈ 1.08 µg/mL); MIC (E. coli ΔentE; ID-MHBCA): 6.3 µM (≈ 2.2 µg/mL); MIC (E. coli ΔentE; MHBCA): 6.3 µM (≈ 2.2 µg/mL); MIC (E. coli ΔtonB; ΔtonB, MHBCA): 6.3 µM (≈ 2.2 µg/mL)
O=C(CCC(=O)N(CCCCNC(=O)c1cccc(O)c1O)CCCNC(=O)c1cccc(O)c1O)NCCCCCN(O)C(=O)CCCC(=O)NC(C(=O)NC1C(=O)N2C(C(=O)O)=C(Cl)CSC12)c1ccccc1 (centres unmarked) [MCEF, mixed ligand bis-catechol-mono-hydroxamate-cefaclor] | 1.6 µM (≈ 1.73 µg/mL) | 1.6 µM (≈ 1.73 µg/mL) | > 200 µM | 13 µM (≈ 14.1 µg/mL) | > 200 µM | < 0.016 | > 200 µM | > 200 µM | 13 µM (≈ 14.1 µg/mL) | > 200 µM | 13 µM (≈ 14.1 µg/mL) |  | > 200 µM | 13 µM (≈ 14.1 µg/mL) | 1.6 µM (≈ 1.73 µg/mL) | 13 µM (≈ 14.1 µg/mL) | 25 µM (≈ 27 µg/mL) | No hydrolysis | 6.3 to 25 µM (≈ 6.81 to 27 µg/mL) | 6.3 µM (≈ 6.81 µg/mL) | MIC (E. coli MC4100; [7]): 6.3 µM (≈ 6.81 µg/mL); MIC (E. coli BW25113; BW25113, ID-MHBCA): >200 µM
